{
  "source": "patent US10472677B2",
  "about": "“Translational dysfunction based therapeutics” (Translational Therapeutics, Inc., priority 2005, dated 2019)",
  "key": {"[1]": {"test_system": "eIF4E-transfected NIH 3T3 cells", "test": "transformation assay, anchorage-dependent foci formation", "format": "cell-based", "conditions": "Mus musculus, NIH3T3, read-out: apparent EC50 suppression of eIF4E-mediated transformation"}, "liver metastatic disease": {"test_system": "liver metastatic disease", "conditions": "Jeney et al. 2006; cited from earlier work"}, "NIH 3T3 cells": {"test_system": "NIH 3T3 cells", "format": "cell-based, mouse", "experimental": "For assessment of necrosis and apoptosis, cells were washed twice with PBS, suspended in 0.14 M NaCl/10 mM Na-Hepes (pH 7.4/2.5 mM CaCl2 at 4° C. at a density of 10^6 cell per ml, and stained with 5 μg/ml propidium iodide and FITC-conjugated annexin V (Becton Dickinson) for 15 min at room temperature Immediately thereafter, cells were washed and analyzed by using a FACSCalibur fluorescence-activated cell scanner (Becton Dickinson). For assessment of cell-cycle profiles, cells were washed twice with PBS, fixed, and permeabilized in 70% (vol/vol) ethanol for 30 min at 4° C., and incubated in PBS containing 10 μg/ml propidium iodide and 30 units/ml RNase A at 37° C. for 30 min. For both measurements, detector gain and compensation settings were adjusted to minimize autofluorescence of unstained cells and channel crosstalk. For cell-cycle analysis, the propidium iodide channel was gated based on light scattering to exclude clumped cells, which may artifactually skew the observed fluorescence intensity.\nCells were seeded at a density of 5,000 cells per well and maintained in 100 μl per well in 96-well plates. […] Production of formazan was quantified by using a μ Quant plate reader (Bio-Tek Instruments) by monitoring the difference in absorbance at 492 and 690 nm, as referenced to the difference in absorbance of samples containing 50 μl of RPMI medium 1640 without phenol red. […]"}, "[2]": {"test_system": "cyclin D1 protein in NIH 3T3 cells", "test": "Western blot of total extracts of treated cells", "format": "cell-based, mouse", "experimental": "Protein concentrations were determined by using bicinchoninic acid-copper reduction (Pierce) and 20-μg aliquots were resolved using SDS/PAGE, transferred to Immobilon-P membrane (Millipore), blocked, and probed by using primary antibodies against eIF4E (1:5000, Transduction Laboratories), cyclin D1 (1:500, Becton Dickinson), β-actin (1:5000, Sigma), c-myc (1:1000, Becton Dickinson), and Sc35 (1:5000, Santa Cruz Biotechnology). Bound antibodies were chemiluminescently detected by using horseradish peroxidase-conjugated secondary antibodies (Amersham Pharmacia) and SuperSignal West Pico reagent according to manufacturer's instructions (Pierce)."}, "[3]": {"test_system": "normal bone marrow myeloid progenitors", "test": "clonogenic assay, primary CD34+ progenitors", "format": "cell-based, human", "conditions": "micromolar concentrations", "excerpt": "(§1) Acute myelogenous leukemia (AML) M1, M5, and normal bone marrow specimens were isolated from patients and processed as described. Primary AML cells were obtained from peripheral blood of patients at the Markey Cancer Center, University of Kentucky Medical Center (Lexington, Ky.). Normal bone marrow was obtained as waste material after pathological analysis, surgical marrow harvest, or from the National Disease Research Interchange (Philadelphia). All tissues were obtained with the approval of the Institutional Review Board and appropriate informed consent. Frozen CD34^+ progenitor cells were thawed in Iscove's modified Dulbecco's (IMD) medium supplemented with 10% (vol/vol) FBS. […] Colonies with >20 cells were counted manually and experiments were repeated four times."}, "AML-M1 progenitor cells": {"test_system": "AML-M1 progenitor cells", "test": "clonogenic assay, primary CD34+ progenitors", "format": "cell-based, human", "conditions": "at ca. 1 uM / similar concentrations", "excerpt": "as §1"}, "cellular guanosine pools": {"test_system": "cellular guanosine pools", "conditions": "read-out: EC50 depletion of cellular guanosine pools; cited from earlier work"}, "[4]": {"biological_target": "T1, eIF4E:mRNA binding in cells (Mus musculus, UniProt P63073)", "T1 construct": "endogenous in cells; host or cells: NIH 3T3 cells", "T1 sequence (P63073 2-217 limits assumed)": "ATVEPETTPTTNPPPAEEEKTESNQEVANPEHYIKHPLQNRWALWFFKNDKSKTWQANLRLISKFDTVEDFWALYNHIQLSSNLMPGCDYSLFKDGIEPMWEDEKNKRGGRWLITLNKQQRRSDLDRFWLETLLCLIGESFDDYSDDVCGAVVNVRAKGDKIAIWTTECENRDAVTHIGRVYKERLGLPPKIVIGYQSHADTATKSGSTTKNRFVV", "test": "immunopurification of eIF4E from treated cells and semiquantitative RT-PCR", "format": "cell-based", "experimental": "Sepharose-conjugated protein G (Amersham Pharmacia) for 30 min at 4° C., incubated with 10 μg of mouse anti-eIF4E antibody (Transduction Laboratories) for 90 min at 4° C., and subsequently incubated overnight at 4° C. upon addition of 0.5 mg yeast tRNA (Sigma-Aldrich), 200 units/ml RNasin (Ambion), and Sepharose-conjugated protein G. Bound Sepharose was washed once with NET-2 buffer supplemented with 1 mg/ml heparin (Sigma-Aldrich) at 4° C., six times with NET-2 buffer alone, and suspended in 100 mM Tris.HCl (pH 6.8)/4% (wt/vol) SDS/20% (vol/vol) glycerol/12% (vol/vol) 2-mercaptoethanol, and incubated for 5 min at 98° C. RNA was extracted once with 25:24:1 […], twice with chloroform:isopropanol, precipitated overnight at −20° C. with 2.5 volumes of absolute ethanol, 0.1 volume of 5 M sodium acetate (pH 5.2), and 20 μg glycogen (Sigma-Aldrich), washed with 75% (vol/vol) ethanol, and resuspended in water. […]. […]"}},
  "note": "Entries after “also recorded” stand apart in the source; their conditions may differ.",
  "data": [
    {"smiles": "NC(=O)c1ncn([C@@H]2O[C@H](CO)[C@@H](O)[C@H]2O)n1", "note": "[Ribavirin, 1-β-D-ribofuranosyl-1,2,4-triazole-3-carboxamide]", "values": [
      {"measurement": "EC50", "setting": "[1]", "value": "100 to 1000", "unit": "nM"},
      {"measurement": "effect on liver metastatic disease", "setting": "liver metastatic disease", "value": "reduce liver metastatic disease"},
      {"measurement": "proportion of cells restricted to the G1 phase", "setting": "NIH 3T3 cells; 0.1 μM, untreated 58%", "value": 91, "unit": "%"},
      {"measurement": "concentration with significant effects on viability and metabolism", "setting": "NIH 3T3 cells; mouse", "value": "≥ 100", "unit": "µM"},
      {"measurement": "levels of B-actin and eIF4E proteins", "setting": "[2]", "value": "not reduced"},
      {"measurement": "EC50", "setting": "[2]; Mus musculus, NIH3T3, read-out: apparent EC50 reduction of cyclin D1 protein levels", "value": "100 to 1000", "unit": "nM"},
      {"measurement": "colony formation of normal bone marrow progenitors", "setting": "[3]", "value": "no effect; also recorded: lack of an effect"},
      {"measurement": "colony formation of AML-M1 progenitors", "setting": "AML-M1 progenitor cells", "value": "no effect; also recorded: failed to repress colony formation"},
      {"measurement": "EC50", "setting": "cellular guanosine pools", "value": "~100000", "unit": "nM"},
      {"measurement": "cytoplasmic eIF4E:VEGF mRNA complexes", "setting": "[4]; 1 uM", "value": "partly abrogated"},
      {"measurement": "cytoplasmic eIF4E:actin mRNA complexes", "setting": "[4]; 100 uM", "value": "not disrupted"},
      {"measurement": "EC50", "setting": "[4]; nuclear eIF4E, read-out: apparent EC50 inhibition of eIF4E binding to cyclin D1 mRNA in cells", "value": "~1000", "unit": "nM"}
    ]}
  ]
}
